We go through 12 molecules from ChEMBL document CHEMBL1134950, “Retro-binding thrombin active site inhibitors: identification of an orally active inhibitor of thrombin catalytic activity” (Bioorg Med Chem Lett, 2002).

In assay [1] the test system is Mus musculus. In words: Efficacy required to inhibit thrombin was determined after 1 hr of oral administration in the mouse thrombin challenge model. It counts as functional.
The test system of assay [2] is Mus musculus. Kind of assay: Efficacy required to inhibit thrombin was determined after 10 min of intravenous administration in the mouse thrombin challenge model. It counts as functional.
The target in another assay is Plasminogen (Homo sapiens, UniProt P00747). In words: Concentration required to inhibit Plasmin was determined.
Chain of Plasminogen (P00747 97-580 limits assumed): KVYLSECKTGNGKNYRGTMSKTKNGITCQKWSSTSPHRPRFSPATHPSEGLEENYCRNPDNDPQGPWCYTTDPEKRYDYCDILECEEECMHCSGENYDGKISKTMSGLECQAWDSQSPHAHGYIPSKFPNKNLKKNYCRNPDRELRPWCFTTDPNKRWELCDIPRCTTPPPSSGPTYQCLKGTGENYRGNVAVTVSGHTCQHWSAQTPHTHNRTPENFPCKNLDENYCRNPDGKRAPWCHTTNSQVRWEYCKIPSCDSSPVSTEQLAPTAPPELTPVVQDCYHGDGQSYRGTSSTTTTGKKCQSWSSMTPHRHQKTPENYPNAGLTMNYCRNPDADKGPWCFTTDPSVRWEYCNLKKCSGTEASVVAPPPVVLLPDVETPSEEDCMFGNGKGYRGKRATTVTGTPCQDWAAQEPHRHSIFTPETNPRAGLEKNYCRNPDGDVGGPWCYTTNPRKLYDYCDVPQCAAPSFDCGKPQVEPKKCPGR
Chain of Plasminogen (P00747 581-810 limits assumed): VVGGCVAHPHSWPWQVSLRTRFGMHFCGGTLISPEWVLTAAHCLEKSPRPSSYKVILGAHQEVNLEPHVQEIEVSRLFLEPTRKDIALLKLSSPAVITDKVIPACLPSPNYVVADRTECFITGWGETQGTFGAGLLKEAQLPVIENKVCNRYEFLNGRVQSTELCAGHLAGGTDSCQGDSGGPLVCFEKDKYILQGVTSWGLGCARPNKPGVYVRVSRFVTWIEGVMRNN
The target in the next assay is Coagulation factor X (Homo sapiens, UniProt P00742). In words: Concentration required to inhibit Coagulation factor X was determined.
Chain of Coagulation factor X (P00742 41-179 limits assumed): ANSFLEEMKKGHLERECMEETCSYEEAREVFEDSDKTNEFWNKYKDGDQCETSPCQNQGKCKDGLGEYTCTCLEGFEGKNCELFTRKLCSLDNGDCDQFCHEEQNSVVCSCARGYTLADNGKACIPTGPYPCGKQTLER
Chain of Coagulation factor X (P00742 235-488 limits assumed): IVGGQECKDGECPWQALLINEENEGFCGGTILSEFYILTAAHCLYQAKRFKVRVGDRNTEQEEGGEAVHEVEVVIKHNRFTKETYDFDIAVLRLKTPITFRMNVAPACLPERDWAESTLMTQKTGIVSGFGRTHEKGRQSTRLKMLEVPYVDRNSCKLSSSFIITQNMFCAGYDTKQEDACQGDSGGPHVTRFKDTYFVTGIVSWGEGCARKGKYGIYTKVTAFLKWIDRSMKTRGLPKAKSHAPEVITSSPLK
The target in assay [3] is T1, Prothrombin (Homo sapiens, UniProt P00734). Kind of assay: Concentration required to inhibit thrombin was determined.
In assay [4] the target is T2, Tissue-type plasminogen activator (Homo sapiens, UniProt P00750). In words: Concentration required to inhibit tissue-type plasminogen activator (t-PA) was determined.
T2 sequence (P00750 whole entry): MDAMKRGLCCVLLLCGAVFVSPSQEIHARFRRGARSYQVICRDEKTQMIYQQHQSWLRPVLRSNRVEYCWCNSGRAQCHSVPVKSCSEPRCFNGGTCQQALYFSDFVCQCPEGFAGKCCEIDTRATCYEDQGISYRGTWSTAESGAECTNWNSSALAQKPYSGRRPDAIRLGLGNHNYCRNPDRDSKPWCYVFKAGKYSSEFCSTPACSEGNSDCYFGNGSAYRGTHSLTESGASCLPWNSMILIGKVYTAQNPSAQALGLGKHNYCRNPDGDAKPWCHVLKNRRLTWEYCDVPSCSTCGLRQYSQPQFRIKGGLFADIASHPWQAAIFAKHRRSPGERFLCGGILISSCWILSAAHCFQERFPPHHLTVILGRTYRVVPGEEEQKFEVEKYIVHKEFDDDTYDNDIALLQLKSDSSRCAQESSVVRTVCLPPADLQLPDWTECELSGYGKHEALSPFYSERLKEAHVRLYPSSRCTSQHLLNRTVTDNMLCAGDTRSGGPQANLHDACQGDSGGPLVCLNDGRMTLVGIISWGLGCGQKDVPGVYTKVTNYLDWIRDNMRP
The target in another assay is T3, Serine protease 1 (Bos taurus, UniProt P00760).
T3 sequence (P00760 whole entry): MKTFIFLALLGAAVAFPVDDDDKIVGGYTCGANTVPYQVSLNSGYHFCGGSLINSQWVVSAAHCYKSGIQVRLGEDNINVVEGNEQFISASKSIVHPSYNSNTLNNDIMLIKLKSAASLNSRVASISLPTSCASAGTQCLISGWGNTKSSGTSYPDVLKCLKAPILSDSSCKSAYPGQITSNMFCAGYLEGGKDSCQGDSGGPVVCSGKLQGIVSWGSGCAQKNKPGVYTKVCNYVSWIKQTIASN
Kind of assay: Concentration required to inhibit Trypsin was determined.

Assay [5] concerns Mus musculus. In words: Efficacy required to inhibit thrombin was determined after 1 hr of intravenous administration in the mouse thrombin challenge model. It counts as functional.
Assay [6] concerns the target T1, Prothrombin. Kind of assay: Concentration required to inhibit Human alpha-thrombin was determined.
In assay [7] the target is T2, Tissue-type plasminogen activator. Kind of assay: Concentration required to inhibit Tissue-type plasminogen activator (t-PA) was determined.
Assay [8] concerns the target T1, Prothrombin. Kind of assay: Inhibitory constant of thrombin catalytic activity was determined.

In general, ED50 refers to the dose at which the effect has come halfway, by size or by number of responders. Broadly, the IC50 is the concentration at which inhibition is half-maximal. Read a high IC50 as weaker potency in that assay. The term Ki denotes the dissociation constant of the complex between target and ligand, obtained from inhibition or displacement. A higher Ki goes with lower affinity.

For `CC(O)[C@@H](C(=O)N[C@H](C)c1ccccc1)N(C)C(=O)[C@H](Cc1ccc([N+](=O)[O-])cc1)NC(=O)CCCN=C(N)N` (some centres not stated), the ED50 in the assay on Mus musculus [1] was found to be 23 mg/kg; with Mus musculus [2], 0.21 mg/kg; in the assay on Mus musculus [5] it was 2.2 mg/kg. The IC50 at Plasminogen was 230 nM; on Coagulation factor X, 4600 nM; against Prothrombin [3], 8 nM; in [4], 700 nM; against Serine protease 1 it was 8 nM.

At Prothrombin [6], `CC(O)[C@H](NC(=O)[C@H](Cc1ccc([N+](=O)[O-])cc1)NC(=O)CCCN=C(N)N)C(=O)N[C@H](CO)c1ccccc1` (some centres not stated) returned an IC50 of 19 nM.

At Prothrombin [6], `CC(O)[C@H](NC(=O)[C@H](Cc1ccc([N+](=O)[O-])cc1)NC(=O)CCCN=C(N)N)C(N)=O` (some centres not stated) had an IC50 of 230000 nM.

The molecule `COC(=O)[C@@H](NC(=O)[C@@H](NC(=O)[C@H](Cc1ccc([N+](=O)[O-])cc1)NC(=O)CCCN=C(N)N)C(C)O)C1CCCCC1` (some centres not stated) yielded an IC50 against Prothrombin [6] of 16 nM.

`CC(O)[C@H](NC(=O)[C@H](Cc1ccc([N+](=O)[O-])cc1)NC(=O)CCCN=C(N)N)C(=O)N[C@@H](C)c1ccccc1` (some centres not stated) returned an IC50 against Prothrombin [6] of 310 nM.

The molecule `CC(O)[C@H](NC(=O)[C@H](Cc1ccc([N+](=O)[O-])cc1)NC(=O)CCCN=C(N)N)C(=O)N[C@H](C)c1ccccc1` (some centres not stated) came in with an IC50 at Prothrombin [6] of 72 nM.

As to `COC(=O)[C@@H](NC(=O)[C@@H](NC(=O)[C@H](Cc1ccc([N+](=O)[O-])cc1)NC(=O)CCCN=C(N)N)C(C)O)c1ccccc1` (some centres not stated), the IC50 on Prothrombin [6] is 8.3 nM.

With `CC(O)[C@H](NC(=O)[C@H](Cc1ccc([N+](=O)[O-])cc1)NC(=O)CCCN=C(N)N)C(=O)N[C@@H](C)Cc1ccccc1` (some centres not stated), the IC50 at Prothrombin [6] was determined as 260 nM.

Regarding `CC(O)[C@H](NC(=O)[C@H](Cc1ccc([N+](=O)[O-])cc1)NC(=O)CCCN=C(N)N)C(=O)N[C@H](C(=O)O)C1CCCCC1` (some centres not stated), half-maximal inhibition on Prothrombin [6] (IC50) was put at 55 nM.

On Prothrombin [6], `CC(O)[C@H](NC(=O)[C@H](Cc1ccc([N+](=O)[O-])cc1)NC(=O)CCCN=C(N)N)C(=O)N[C@H](CO)C1CCCCC1` (some centres not stated) registered an IC50 of 19 nM.

Consider `CC(O)[C@H](NC(=O)[C@H](Cc1ccc([N+](=O)[O-])cc1)NC(=O)CCCN=C(N)N)C(=O)N[C@H](C)Cc1ccccc1` (some centres not stated), for which the IC50 against Prothrombin [6] came out at 43 nM.

In the case of `CN[C@H](Cc1ccccc1)C(=O)N1CCC[C@H]1C(=O)N[C@H](C=O)CCCNC(=N)N` [EFEGATRAN], the ED50 in the assay with Mus musculus [1] was 44 mg/kg; in the assay on Mus musculus [2], 0.04 mg/kg; with Mus musculus [5] it was 3 mg/kg. The IC50 on Plasminogen was found to be 25000 nM; in [7], 34000 nM; at Coagulation factor X it was 16000 nM; on Prothrombin [3] it was 30 nM; at Serine protease 1, 45 nM. This molecule also had an inhibition constant Ki on Prothrombin [8] of 7 nM.
